Results on 6 compounds are retold here after patent publication US7557136B2, “Pyrrolidine derivatives as oxytocin antagonists” (Laboratoires Serono SA, priority 2003, dated 2009).

The experiment has as its target T1, human Oxytocin (hOT) receptor (Homo sapiens, UniProt P30559).
T1 construct: expressed in transfected cells; host or cells: HEK293EBNA (membranes)
T1 sequence (P30559 1-389): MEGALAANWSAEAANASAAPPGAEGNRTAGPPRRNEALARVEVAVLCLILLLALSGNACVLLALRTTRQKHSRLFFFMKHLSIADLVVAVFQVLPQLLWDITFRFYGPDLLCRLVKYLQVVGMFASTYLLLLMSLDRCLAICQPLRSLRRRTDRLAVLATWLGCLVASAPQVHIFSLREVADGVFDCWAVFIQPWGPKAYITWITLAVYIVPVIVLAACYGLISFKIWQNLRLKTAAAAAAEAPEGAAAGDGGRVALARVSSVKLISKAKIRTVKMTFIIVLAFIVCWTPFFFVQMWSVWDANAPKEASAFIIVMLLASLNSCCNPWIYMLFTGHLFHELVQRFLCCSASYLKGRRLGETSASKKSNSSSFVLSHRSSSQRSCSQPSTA
Description: In vitro competition binding assay on hOT receptor with scintillation proximity assay ([125I]-OVTA). The settings on record: membranes from HEK293EBNA cells expressing the hOT receptor; 0.2 nM [125I]-OVTA; SPA; read-out: Binding Affinity hOT-R (Ki [nM]). The method, then:
The compounds according to formula (I) may be subjected to the following assays: • a) In Vitro Competition Binding Assay on hOT Receptor with Scintillation Proximity Assay (11).
This assay allows to determine the affinity of the test compounds for the human Oxytocin (hOT) receptor. Membranes from HEK293EBNA (cells expressing the hOT receptor) were suspended in buffer containing 50 mM Tris-HCl, pH 7.4, 5 mM MgCl2 and 0.1% BSA (w/v). The membranes (2-4 μg) were mixed with 0.1 mg SPA bead coated with wheat-germ aglutinin (WGA-PVT-Polyethylene Imine beads from Amersham) and 0.2 nM of the radiolabelled [^125I]-OVTA (OVTA being Ornithin Vasoactive, an analogue of OT for competitive binding experiments). Non-specific binding was determined in the presence of 1 μM Oxytocin. The total assay volume was 100 μl. The plates (Corning® NBS plate) were incubated at room temperature for 30 min and counted on a Mibrobeta® plate scintillation counter. Competitive binding was performed in presence of compounds of formula (I) at the following concentrations: 30 μM, 10 μM, 1 μM, 300 nM, 100 nM, 10 nM, 1 nM, 100 pM, 10 pM. The competitive binding data were analysed using the iterative, nonlinear, curve-fitting program, “Prism” (GraphPad Software, Inc).
The ability of pyrrolidine derivatives of formula (I) to inhibit the binding of ^125I-OVTA to the OT-receptor was assessed using the above described in vitro biological assay. Representative values for some example compounds are given in Table I where the binding affinity of test compounds from the above examples is expressed by the inhibition constant (Ki; nM). From these values, it can be derived that said test compounds according to formula (I) do show a significant binding to the oxytocin receptor.
(In a scintillation proximity assay essentially only radioactivity close to the scintillant gives light.)
`CON=C1C[C@@H](CC(=O)OC)N(C(=O)c2ccc(-c3ccccc3)cc2)C1` [Example 1, methyl [(2S,4EZ)-1-(biphenyl-4-ylcarbonyl)-4-(methoxyimino)pyrrolidin-2-yl]acetate]: the Ki (commonly the equilibrium dissociation constant of an inhibitor or competing ligand from its target) was found to be 37 nM.

Regarding `CON=C1CC(CCC(=O)OC)N(C(=O)c2ccc(-c3ccccc3)cc2)C1` [Example 2, methyl 3-[(2R,4EZ)-1-biphenyl-4-ylcarbonyl)-4-(methoxyimino)pyrrolidin-2-yl]propanoate], the Ki was determined as 144 nM.

In the case of `CON=C1C[C@@H](CC(=O)OC2CCCC2)N(C(=O)c2ccc(-c3ccccc3)cc2)C1` [Example 3, cyclopentyl [(2S,4EZ)-1-(biphenyl-4-ylcarbonyl)-4-(methoxyimino)pyrrolidin-2-yl]acetate], the Ki was 46 nM.

For the compound `CON=C1CC(CC(=O)NC[C@H](O)c2ccccc2)N(C(=O)c2ccc(-c3ccccc3)cc2)C1` (stereo partly drawn) [Example 5], the Ki is 67 nM.

As to `CON=C1C[C@@H](CCC(=O)NC[C@@H](O)c2ccccc2)N(C(=O)c2ccc(-c3ccccc3)cc2)C1` [Example 6, 3-[(2R,4EZ)-1-(biphenyl-4-ylcarbonyl)-4-(methoxyimino)pyrrolidin-2-yl]-N-[(2S)-2-hydroxy-2-phenylethyl]propanamide], the Ki was determined as 77 nM.

In the case of `CON=C1CC(CC(=O)N2CCOCC2)N(C(=O)c2ccc(-c3ccccc3)cc2)C1` [Example 9, (3EZ,5S)-1-(biphenyl-4-ylcarbonyl-5-(2-morpholin-4yl-2-oxoethyl)pyrrolidin-3-one O-methyloxime], the Ki turned out to be 142 nM.
